Data on 17 molecules can be found in patent US12692529B2, “Quantitative screen for the assessment of inter-individual variability in drug metabolism by the human gut microbiome” (The Trustees of Princeton University, priority 2020, dated 2026).

For data set [1], the system named is ex vivo cultures of donor gut microbiome (BG medium). Put plainly: MDMQ-Screen 20-donor screen: drug depletion and metabolite production in ex vivo cultures, targeted metabolomics by HPLC-HRMS. Particulars: for MDM in drug depletion across donors / MDM in metabolite production across donors / MDM (microbiome-derived metabolism) across donors: 20 donors, BG medium, drug 33 μM, 24-hour incubation; for MDM in drug depletion across donors: significant if FDR p<0.01 and depletion >50% vs controls; for MDM in metabolite production across donors: significant if FDR p<0.01 vs all three controls; for Pearson correlation coefficient of drug signal and sum of known metabolite signals (drug depletion vs metabolite production): all donor-drug ex vivo samples, known (quantified) metabolites only.

Data set [2] has the same test system. Put plainly: Untargeted metabolomics with molecular ion networking for new metabolite discovery in the 20-donor screen. The data set is classed as in vitro ADME, human. The procedure: In order to extract all features in a given sample, a batch recursive feature extraction method for small molecules and peptides within Profinder 8 (Agilent) can be used. The following settings in the method were changed from default: compound ion count threshold set to two ions, alignment retention time tolerance set to 0.2 min, minimum MFE score set to 90, minimum file prevalence set to 2, expected retention time set to ±1 min, retention time contribution to matching score set to 90, expected MS1 mass variation set to 10 ppm, expected retention time tolerance set to 0.2 min, absolute height threshold for EIC integration set to 2500 counts, and final absolute height threshold set to 5000. The resulting feature abundances were then analyzed in MATLAB. Any sample whose internal standard AUC is less than 10^6 was removed. Hypothesis testing was then performed using similar statistical methods as for metabolite production in the targeted metabolomics, except that the multiple hypothesis correction of Storey (Storey, 2002) was used in place of the Benjamini-Hochberg method and require a fold-change cut-off of two relative to all controls. […] All ions already quantified in the screen and all features that are statistically significant for more than one drug are removed. […]

As to `CCCCC(C)(O)C/C=C/[C@H]1[C@H](O)CC(=O)[C@@H]1CCCCCCC(=O)OC` (mixture of isomers) [misoprostol], in data set [1], the “MDM in drug depletion across donors” value was “consistently positive”.

Take `CCCCCOC(=O)Nc1nc(=O)n([C@@H]2O[C@H](C)[C@@H](O)[C@H]2O)cc1F` [capecitabine]: in data set [1], the “MDM in drug depletion across donors” value is “variable” and the “MDM in metabolite production across donors” value was “variable”.

`CC(C)/N=c1\cc2n(-c3ccc(Cl)cc3)c3ccccc3nc-2cc1Nc1ccc(Cl)cc1` [clofazimine]: in data set [1], the “MDM in drug depletion across donors” value is given as “variable” and the “MDM in metabolite production across donors” value is given as “variable”.

On to `O=C1CN=C(c2ccccc2Cl)c2cc([N+](=O)[O-])ccc2N1` [clonazepam], for which, in data set [1], the “MDM in drug depletion across donors” value was “consistently positive” and the “MDM in metabolite production across donors” value is on record as “consistently positive”.

In the case of `C[C@]12CCC(=O)C=C1CC[C@@H]1[C@@H]2[C@@H](O)C[C@@]2(C)[C@H]1CC[C@]2(O)C(=O)CO` [hydrocortisone], the “MDM in drug depletion across donors” value in data set [1] is “variable”.

As to `CC(=O)N1CCN(c2ccc(OCC3COC(Cn4ccnc4)(c4ccc(Cl)cc4Cl)O3)cc2)CC1` (stereo not drawn) [ketoconazole], in data set [1], the “MDM (microbiome-derived metabolism) across donors” value is “consistently negative”.

As for `C#C[C@]1(O)CC[C@H]2[C@@H]3CCC4=CC(=O)CC[C@@H]4[C@H]3CC[C@@]21CC` [levonorgestrel], the “MDM in drug depletion across donors” value in data set [1] was “variable”.

In the case of `CC[C@H](C)C(=O)O[C@H]1C[C@@H](C)C=C2C=C[C@H](C)[C@H](CC[C@@H]3C[C@@H](O)CC(=O)O3)[C@H]21` [lovastatin], in data set [1], the “MDM in drug depletion across donors” value is “variable” and the “MDM in metabolite production across donors” value is on record as “variable”.

Take `COc1c(C)c2c(c(O)c1C/C=C(\C)CCC(=O)OCCN1CCOCC1)C(=O)OC2` [mycophenolate mofetil]: in data set [1], the “MDM in drug depletion across donors” value is reported as “variable” and the “MDM in metabolite production across donors” value is recorded as “variable”.

As for `COC(=O)C1=C(C)NC(C)=C(C(=O)OCCN(C)Cc2ccccc2)C1c1cccc([N+](=O)[O-])c1` (stereo not drawn) [nicardipine], the “Pearson correlation coefficient of drug depletion and metabolite production after inclusion of metabolites discovered by untargeted metabolomics” value in data set [1] (after inclusion of 11 additional metabolites, FDR corrected p=0.0102) is recorded as −0.6. Further, the “Pearson correlation coefficient of drug signal and sum of known metabolite signals (drug depletion vs metabolite production)” value in data set [1] is −0.22. In addition, in data set [2], the “number of additional metabolites detected by the untargeted metabolomics pipeline” value is on record as 11.

Regarding `Cc1nc2n(c(=O)c1CCN1CCC(c3noc4cc(F)ccc34)CC1)CCCC2` [risperidone], the “MDM in drug depletion across donors” value in data set [1] is given as “consistently positive”.

As to `CCCN(CCC)CCc1cccc2c1CC(=O)N2` [ropinirole], in data set [1], the “MDM (microbiome-derived metabolism) across donors” value is reported as “consistently negative”.

For `CC(=O)S[C@@H]1CC2=CC(=O)CC[C@]2(C)[C@H]2CC[C@@]3(C)[C@@H](CC[C@@]34CCC(=O)O4)[C@H]12` [spironolactone], in data set [1], the “MDM in drug depletion across donors” value is “consistently positive” and the “MDM in metabolite production across donors” value is “variable”.

With `CC1=C(CC(=O)O)c2cc(F)ccc2/C1=C\c1ccc([S+](C)[O-])cc1` (stereo not drawn) [sulindac], in data set [1], the “MDM in drug depletion across donors” value is listed as “variable” and the “MDM in metabolite production across donors” value was “variable”.

For `Cc1ccc(C(=O)c2cc(O)c(O)c([N+](=O)[O-])c2)cc1` [tolcapone], the “MDM in metabolite production across donors” value in data set [1] is “consistently positive”.

For `Cc1cccc(Nc2ccncc2S(=O)(=O)NC(=O)NC(C)C)c1` [torsemide], the “MDM (microbiome-derived metabolism) across donors” value in data set [1] is “consistently negative”.

Consider `O=C(CCCCCCC(=O)Nc1ccccc1)NO` [vorinostat], for which, in data set [1], the “MDM in drug depletion across donors” value is given as “variable”; the “Pearson correlation coefficient of drug signal and sum of known metabolite signals (drug depletion vs metabolite production)” value was −0.91.
